Assay results published in BindingDB's records for patent US12496348 (Dana-Farber Cancer Institute, 2025).

Molecular target: CREB-binding protein (Homo sapiens, UniProt Q92793)
Experiment: CBP (Bromodomain) AlphaScreen Assay
Description: Assays were performed with minimal modifications from the manufacturer's protocol (PerkinElmer , USA). All reagents were diluted in 50 mM 4-(2-hydroxyethyl)-1-piperazineethanesulfonic acid (HEPES), 150 mM NaCl, 0.1% w/v bovine serum albumin (BSA), 0.01% w/v Tween 20, pH 7.5 and allowed to equilibrate to room temperature prior to addition to plates. After addition of AlphaScreen acceptor beads to master solutions, all subsequent steps were performed under low light conditions. A 2× solution of components with final concentrations of CBP bromodomain at 40 nM, Ni-coated Acceptor Bead at 10 μg/ml, and 7.2 nM biotinylated-Int-2 was added in 10 μL to 384-well plates (AlphaPlate-384, PerkinElmer , USA). Plates were spun down at 150×g, 100 nL of compound in dimethyl sulfoxide (DMSO) from stock plates were added by pin transfer using a Janus Workstation (PerkinElmer , USA). The streptavidin-coated donor beads ([…] final) were added as with previous the solution in a 2×10 μL volume. Following this addition, plates were sealed with foil to prevent light exposure and evaporation. The plates were spun down again at 150×g. Plates were incubated at room temperature for 1 hour and then read on a 2104 EnVision Multilabel Plate Reader (PerkinElmer , USA) using the manufacturer's protocol.

CREB-binding protein, sequence (Q92793 whole entry): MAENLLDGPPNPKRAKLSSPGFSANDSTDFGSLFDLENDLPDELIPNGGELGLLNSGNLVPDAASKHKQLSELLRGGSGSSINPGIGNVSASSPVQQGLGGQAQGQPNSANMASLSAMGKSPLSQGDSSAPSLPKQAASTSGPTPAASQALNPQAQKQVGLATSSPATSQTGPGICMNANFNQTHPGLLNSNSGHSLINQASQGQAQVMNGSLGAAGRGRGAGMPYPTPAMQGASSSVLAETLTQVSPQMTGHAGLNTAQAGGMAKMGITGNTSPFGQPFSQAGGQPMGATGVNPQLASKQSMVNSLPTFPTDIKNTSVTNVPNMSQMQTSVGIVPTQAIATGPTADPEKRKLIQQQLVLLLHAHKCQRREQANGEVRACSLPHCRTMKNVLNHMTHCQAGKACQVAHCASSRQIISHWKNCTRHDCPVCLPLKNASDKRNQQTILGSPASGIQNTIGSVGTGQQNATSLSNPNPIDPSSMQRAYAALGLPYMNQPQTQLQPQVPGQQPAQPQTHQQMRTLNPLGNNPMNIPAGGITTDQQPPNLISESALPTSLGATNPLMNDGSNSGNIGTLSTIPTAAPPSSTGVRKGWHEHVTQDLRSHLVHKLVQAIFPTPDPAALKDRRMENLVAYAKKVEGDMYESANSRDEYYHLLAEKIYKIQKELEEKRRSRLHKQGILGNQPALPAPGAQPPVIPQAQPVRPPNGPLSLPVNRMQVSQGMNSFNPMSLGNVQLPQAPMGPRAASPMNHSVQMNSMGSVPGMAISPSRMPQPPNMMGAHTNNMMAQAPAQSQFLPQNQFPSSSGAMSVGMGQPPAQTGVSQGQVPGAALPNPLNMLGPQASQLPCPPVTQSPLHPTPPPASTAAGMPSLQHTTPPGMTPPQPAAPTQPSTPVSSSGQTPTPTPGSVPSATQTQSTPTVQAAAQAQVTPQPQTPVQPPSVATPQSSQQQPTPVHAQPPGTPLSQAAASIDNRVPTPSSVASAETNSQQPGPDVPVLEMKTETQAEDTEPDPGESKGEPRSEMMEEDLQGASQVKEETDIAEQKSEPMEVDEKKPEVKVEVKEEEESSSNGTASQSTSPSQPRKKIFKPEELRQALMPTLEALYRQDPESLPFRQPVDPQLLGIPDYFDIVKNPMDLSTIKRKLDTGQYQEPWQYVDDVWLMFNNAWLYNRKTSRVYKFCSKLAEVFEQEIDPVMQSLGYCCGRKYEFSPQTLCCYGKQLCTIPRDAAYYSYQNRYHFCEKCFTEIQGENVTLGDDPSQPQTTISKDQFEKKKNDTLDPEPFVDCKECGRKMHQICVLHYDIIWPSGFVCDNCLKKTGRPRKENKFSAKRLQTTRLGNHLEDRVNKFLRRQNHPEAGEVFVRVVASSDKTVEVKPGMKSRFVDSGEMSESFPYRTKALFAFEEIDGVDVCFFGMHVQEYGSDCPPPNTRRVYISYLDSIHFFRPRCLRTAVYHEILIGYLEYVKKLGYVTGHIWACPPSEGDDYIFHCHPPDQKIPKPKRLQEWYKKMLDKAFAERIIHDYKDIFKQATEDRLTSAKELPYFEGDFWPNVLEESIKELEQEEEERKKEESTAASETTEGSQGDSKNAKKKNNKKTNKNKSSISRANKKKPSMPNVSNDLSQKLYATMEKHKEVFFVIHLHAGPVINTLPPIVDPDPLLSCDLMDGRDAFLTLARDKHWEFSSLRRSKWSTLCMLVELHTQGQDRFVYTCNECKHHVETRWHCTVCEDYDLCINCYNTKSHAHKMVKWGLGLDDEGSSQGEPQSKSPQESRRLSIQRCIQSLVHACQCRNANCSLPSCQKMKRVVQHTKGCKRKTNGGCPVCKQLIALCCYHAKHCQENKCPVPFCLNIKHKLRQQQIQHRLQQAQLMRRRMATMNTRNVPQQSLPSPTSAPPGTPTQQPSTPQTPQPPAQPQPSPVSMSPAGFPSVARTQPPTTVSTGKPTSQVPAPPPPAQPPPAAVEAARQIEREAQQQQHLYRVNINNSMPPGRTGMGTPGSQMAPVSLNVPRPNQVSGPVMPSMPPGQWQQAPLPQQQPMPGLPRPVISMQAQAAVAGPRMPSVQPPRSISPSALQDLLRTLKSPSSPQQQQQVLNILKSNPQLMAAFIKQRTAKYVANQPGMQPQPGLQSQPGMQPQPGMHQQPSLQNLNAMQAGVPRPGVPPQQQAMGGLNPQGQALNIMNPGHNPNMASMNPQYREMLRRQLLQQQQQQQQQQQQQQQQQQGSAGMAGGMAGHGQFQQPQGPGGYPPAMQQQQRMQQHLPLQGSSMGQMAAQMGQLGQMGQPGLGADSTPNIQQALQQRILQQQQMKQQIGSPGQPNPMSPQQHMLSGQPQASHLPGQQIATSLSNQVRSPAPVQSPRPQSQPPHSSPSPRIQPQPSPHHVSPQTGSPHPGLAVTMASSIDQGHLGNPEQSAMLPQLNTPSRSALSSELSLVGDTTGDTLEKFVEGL

IC50: 18.9 µM
Compound: Cc1noc(C)c1-c1ccc2nc(-c3ccc(N4CCN(C(=O)CCCCCCCCCCCNc5ccc6c(c5)C(=O)N(C5CCC(=O)NC5=O)C6=O)CC4)cc3)c(NC3CCCCC3)n2c1 (stereo unspecified) [US12496348, Compound 1]
